≈ marks a conversion by molar mass, not a printed value. Values belong to the molecule of their own block, whether it stands above or below them.
What was measured:
[1] = Lipophilicity, logD of the compound at pH 7.4; assay type: physicochemical; settings: buffer
[2] = Aqueous solubility of the compound in pH 7.4 buffer; assay type: physicochemical
[3] = Oral bioavailability in rat; assay type: ADME, organism-based; settings: in vivo
[4] = Clearance in rat; assay type: ADME; settings: in vivo
[5] = molecular target: Voltage-gated inwardly rectifying potassium channel KCNH2 (Homo sapiens, UniProt Q12809); test: Inhibition of human ERG; assay type: toxicity
[6] = Metabolic stability in human hepatocytes measured per million cells; assay type: ADME, cell-based, Hepatocyte; settings: read-out: CLH
[7] = Metabolic stability in rat hepatocytes measured per million cells; assay type: ADME, cell-based, Hepatocyte; settings: read-out: CLH
[8] = Efflux ratio of apparent permeability basolateral to apical side over apical to basolateral side in human Caco-2 cells; assay type: ADME, cell-based
[9] = molecular target: T1, Monocarboxylate transporter 4 (Homo sapiens, UniProt O15427); test: Inhibition of MCT4 in human SK-BR-3 cells assessed as inhibition of lactate efflux incubated for 4 hrs by automated microplate reader analysis; assay type: cell-based
T1 sequence (O15427 whole entry): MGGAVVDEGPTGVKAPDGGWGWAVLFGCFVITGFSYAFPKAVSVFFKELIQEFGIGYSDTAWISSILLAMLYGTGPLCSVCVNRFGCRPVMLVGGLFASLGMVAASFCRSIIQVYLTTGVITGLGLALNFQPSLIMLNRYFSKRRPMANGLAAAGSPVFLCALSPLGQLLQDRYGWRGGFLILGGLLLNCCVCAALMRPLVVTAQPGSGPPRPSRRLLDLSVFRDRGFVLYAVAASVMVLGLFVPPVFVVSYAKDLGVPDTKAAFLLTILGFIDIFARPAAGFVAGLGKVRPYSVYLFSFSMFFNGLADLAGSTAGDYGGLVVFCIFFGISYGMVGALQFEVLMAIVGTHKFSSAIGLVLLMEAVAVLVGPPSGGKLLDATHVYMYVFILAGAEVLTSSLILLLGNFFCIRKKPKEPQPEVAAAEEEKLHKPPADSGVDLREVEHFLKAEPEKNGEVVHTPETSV

[10] = Oral bioavailability in Wistar rat at 5 mg/kg; assay type: ADME, organism-based; settings: in vivo
[11] = Oral bioavailability in Beagle dog at 2 mg/kg; assay type: ADME, organism-based, Canis lupus familiaris; settings: in vivo
[12] = molecular target: T2, Monocarboxylate transporter 1 (Homo sapiens, UniProt P53985); test: Inhibition of MCT1 in human K562 cells assessed as inhibition of lactate efflux incubated for 1 hr by FLIPR method; assay type: cell-based
T2 sequence (P53985 whole entry): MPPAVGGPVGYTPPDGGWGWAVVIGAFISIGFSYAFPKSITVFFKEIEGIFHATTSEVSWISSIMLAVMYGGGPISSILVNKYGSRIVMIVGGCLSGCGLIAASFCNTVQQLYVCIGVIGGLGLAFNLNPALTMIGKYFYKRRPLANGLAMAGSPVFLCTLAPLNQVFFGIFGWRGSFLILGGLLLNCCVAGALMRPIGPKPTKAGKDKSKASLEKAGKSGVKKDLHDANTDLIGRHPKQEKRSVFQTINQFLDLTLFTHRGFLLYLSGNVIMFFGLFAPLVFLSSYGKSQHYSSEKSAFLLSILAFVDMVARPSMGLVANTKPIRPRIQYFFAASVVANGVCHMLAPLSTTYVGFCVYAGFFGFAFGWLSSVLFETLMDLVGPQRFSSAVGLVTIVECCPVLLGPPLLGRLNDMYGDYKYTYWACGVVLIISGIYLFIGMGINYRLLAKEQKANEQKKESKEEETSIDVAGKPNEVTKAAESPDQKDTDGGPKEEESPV

[13] = Plasma protein binding in rat assessed as free fraction; assay type: ADME, cell-free
[14] = Toxicity in mouse assessed as body weight loss at 100 mg/kg BID administered twice daily for 17 days via oral gavage in presence of cediranib; assay type: organism-based; settings: in vivo, 408 h, time 17 day
[15] = Thermodynamic solubility of the compound in FaSSIF using crystalline form of sample at pH 6.5; assay type: physicochemical; settings: read-out: Therm_solubility
[16] = Clearance in Beagle dog at 1 mg/kg, iv; assay type: ADME, organism-based, Canis lupus familiaris; settings: in vivo
[17] = Metabolic stability in human hepatocytes assessed as intrinsic clearance measured per million cells; assay type: ADME, cell-based, Hepatocyte; settings: read-out: CLH
[18] = Plasma protein binding in human assessed as free fraction; assay type: ADME, cell-free
[19] = Apparent permeability of the compound across apical side to basolateral side in human Caco-2 cells; assay type: ADME, cell-based
[20] = Toxicity in mouse assessed as body weight loss at 100 mg/kg BID administered twice daily for 17 days via oral gavage; assay type: organism-based; settings: in vivo, 408 h, time 17 day
[21] = Clearance in Wistar rat at 2 mg/kg, iv; assay type: ADME, organism-based; settings: in vivo
[22] = Plasma protein binding in dog assessed as free fraction; assay type: ADME, cell-free, Canis lupus familiaris
[23] = Metabolic stability in dog hepatocytes assessed as intrinsic clearance measured per million cells; assay type: ADME, cell-based, Canis lupus familiaris, Hepatocyte; settings: read-out: CLH
NCI-H358 = test: Antiproliferative activity against human NCI-H358 cells assessed as cell growth inhibition; assay type: functional

Sequence of Voltage-gated inwardly rectifying potassium channel KCNH2 (Q12809 whole entry): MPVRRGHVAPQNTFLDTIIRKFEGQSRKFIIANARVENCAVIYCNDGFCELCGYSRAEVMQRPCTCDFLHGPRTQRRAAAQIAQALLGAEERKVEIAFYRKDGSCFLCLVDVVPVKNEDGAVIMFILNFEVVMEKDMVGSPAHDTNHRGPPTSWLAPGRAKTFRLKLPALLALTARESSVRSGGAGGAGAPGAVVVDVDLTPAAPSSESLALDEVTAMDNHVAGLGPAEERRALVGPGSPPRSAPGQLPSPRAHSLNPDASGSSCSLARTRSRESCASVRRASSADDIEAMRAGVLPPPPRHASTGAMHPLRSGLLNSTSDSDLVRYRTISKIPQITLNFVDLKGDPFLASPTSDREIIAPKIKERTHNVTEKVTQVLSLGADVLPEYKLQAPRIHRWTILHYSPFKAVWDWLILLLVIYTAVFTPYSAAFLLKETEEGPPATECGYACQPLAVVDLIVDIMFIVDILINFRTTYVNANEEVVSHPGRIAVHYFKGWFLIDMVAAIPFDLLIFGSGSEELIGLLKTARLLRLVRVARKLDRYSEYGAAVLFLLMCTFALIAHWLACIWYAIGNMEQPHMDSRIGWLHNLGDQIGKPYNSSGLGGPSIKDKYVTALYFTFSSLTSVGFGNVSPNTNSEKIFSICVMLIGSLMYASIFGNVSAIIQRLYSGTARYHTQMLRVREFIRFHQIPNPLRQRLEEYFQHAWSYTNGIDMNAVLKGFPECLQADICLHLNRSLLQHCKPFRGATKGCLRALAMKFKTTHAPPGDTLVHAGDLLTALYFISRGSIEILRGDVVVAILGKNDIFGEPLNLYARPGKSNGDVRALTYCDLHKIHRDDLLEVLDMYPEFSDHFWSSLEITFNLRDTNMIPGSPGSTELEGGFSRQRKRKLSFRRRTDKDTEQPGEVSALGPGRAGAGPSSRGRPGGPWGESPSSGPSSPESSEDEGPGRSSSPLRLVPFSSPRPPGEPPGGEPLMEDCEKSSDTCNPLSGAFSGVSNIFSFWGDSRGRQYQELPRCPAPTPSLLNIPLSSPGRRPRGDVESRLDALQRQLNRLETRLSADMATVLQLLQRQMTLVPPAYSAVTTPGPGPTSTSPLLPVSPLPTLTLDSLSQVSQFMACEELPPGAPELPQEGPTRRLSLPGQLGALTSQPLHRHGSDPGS

SMILES: Cc1nc2nc(C)c(C[C@@H]3CCN(c4cnc(-c5ccc(CN6CCN(C)CC6)cc5)cn4)C3)c(C)n2n1
- bioavailability [3]: 61%
- logD [1]: 2
- clearance [4]: 29 mL/min/kg
- IC50 [5]: > 24 µM
- hepatocyte CLint [6]: 1.9 µL/min/1e6 cells
- hepatocyte CLint [7]: < 2 µL/min/1e6 cells

SMILES: Cc1nc2nc(C)c(C[C@@H]3CCN(c4cnc(-c5ccc(CN6CCOCC6)cc5)cn4)C3)c(C)n2n1
- efflux ratio [8]: 1.1
- bioavailability [3]: 47%
- logD [1]: 2.6
- clearance [4]: 53 mL/min/kg
- IC50 [9]: < 0.00038 µM
- IC50 [5]: 1.8 µM
- hepatocyte CLint [6]: 3.4 µL/min/1e6 cells
- hepatocyte CLint [7]: 13 µL/min/1e6 cells

SMILES: Cc1nc2nc(C)c(C[C@@H]3CCN(c4ccc(-c5ccc(CN6CCOCC6)nn5)cc4)C3)c(C)n2n1
- logD [1]: 2.3
- IC50 [5]: 13 µM

SMILES: CC(=O)N1CCN(Cc2ccc(-c3ccc(N4CC[C@@H](Oc5c(C)nc6nc(C)nn6c5C)C4)cc3)nn2)CC1
- logD [1]: 1.4
- IC50 [5]: > 33 µM

SMILES: Cc1nc2nc(C)c(C[C@@H]3CCN(c4ccc(-c5ccc(CN6CCN(C)CC6)nn5)cc4)C3)c(C)n2n1
- logD [1]: 1.8
- IC50 [5]: > 33 µM

SMILES: Cc1nc2nc(C)c(O[C@@H]3CCN(c4ccc(-c5ccc(CN6CCOCC6)nn5)cc4)C3)c(C)n2n1
- bioavailability [10]: 106%
- bioavailability [11]: 84%
- IC50 [12]: > 30 µM
- logD [1]: 1.8
- fraction unbound [13]: 0.3
- IC50 [5]: 29 µM
- Activity [14]: Non-Toxic
- solubility thermodynamic [15]: 839 µM (≈ 420 µg/mL)
- clearance [16]: 14 mL/min/kg
- hepatocyte CLint [17]: 1.9 µL/min/1e6 cells
- fraction unbound [18]: 0.32
- Papp A→B [19]: 13 ×10⁻⁶ cm/s
- Activity [20]: Non-Toxic
- clearance [21]: 15 mL/min/kg
- fraction unbound [22]: 0.39
- hepatocyte CLint [23]: 3.3 µL/min/1e6 cells
- GI50 (NCI-H358): 0.026 µM

SMILES: Cc1nc2ncnn2c(C)c1CCC(=O)Nc1nnc(-c2ccc(C(C)C)cc2)s1
- logD [1]: 3.7

SMILES: Cc1nc2nc(C)c(C[C@@H]3CCN(c4ccc(-c5cnc(CN6CCOCC6)cn5)cc4)C3)c(C)n2n1
- logD [1]: 2.7

SMILES: Cc1nc2nc(C)c(O[C@@H]3CCN(c4ccc(-c5ccc(CN6CCN(C)CC6)nn5)cc4)C3)c(C)n2n1
- logD [1]: 1.4
- IC50 [5]: > 33 µM

Now from value to molecule, other results behind:

- logD [1]: 2.4
- solubility [2]: 3 µM (≈ 1.16 µg/mL)
SMILES: Cc1nc2nc(C)c(CCNC(=O)c3cnc(-c4ccccc4)cn3)c(C)n2n1

- logD [1]: 1.9
- solubility [2]: 224 µM (≈ 109 µg/mL)
SMILES: Cc1nc2nc(C)c(CCNC(=O)c3cnc(-c4ccc([C@H]5COCCN5C)cc4)cn3)c(C)n2n1

- logD [1]: 1.9
- solubility [2]: > 300 µM
SMILES: Cc1nc2nc(C)c(CCNC(=O)c3cnc(-c4ccc([C@@H]5COCCN5C)cc4)cn3)c(C)n2n1

- logD [1]: 2.5
SMILES: Cc1nc2ncnn2c(C)c1CCC(=O)Nc1nnc(-c2ccccc2)s1

- logD [1]: 2.5
SMILES: Cc1nc2nc(C)c(CCNC(=O)c3nnc(-c4ccccc4)s3)c(C)n2n1

- bioavailability [3]: 34%
- logD [1]: 1.8
- clearance [4]: 31 mL/min/kg
- solubility [2]: 138 µM (≈ 67.1 µg/mL)
- hepatocyte CLint [6]: 2.5 µL/min/1e6 cells
- hepatocyte CLint [7]: 17 µL/min/1e6 cells
SMILES: Cc1nc2nc(C)c(CCNC(=O)c3cnc(-c4ccc(CN5CCOCC5)cc4)cn3)c(C)n2n1
- IC50 [5]: 24 µM

- logD [1]: 3.4
- solubility [2]: 2 µM (≈ 0.771 µg/mL)
SMILES: Cc1nc2nc(C)c(CCNC(=O)c3ccc(-c4ccccc4)cc3)c(C)n2n1

- logD [1]: 2.8
SMILES: Cc1nc2nc(C)c(CCC(=O)Nc3nnc(-c4ccccc4)s3)c(C)n2n1

— ChEMBL document CHEMBL5316265, “Discovery of Clinical Candidate AZD0095, a Selective Inhibitor of Monocarboxylate Transporter 4 (MCT4) for Oncology” (J Med Chem, 2023)
